Measured values from patent US11596639B2, “Substituted indole Mcl-1 inhibitors” (Vanderbilt University, priority 2016, dated 2023).
Where two headings read alike, the source gives them in different places.

How the values were obtained:
Mcl-1 = Mcl-1 (Homo sapiens (Human), UniProt Q07820); assay: TR-FRET binding assay, FITC-Bak peptide and MBP-tagged Mcl-1; details: read-out: Ki for Inhibition of Mcl-1 by TR-FRET assay
Description: Compounds are diluted in DMSO in a 16-point, semilog serial dilution scheme. […] The plate was mixed and incubated for 3 hours at room temperature. […] TR-FRET signal is plotted and IC50 and Ki values are calculated in the same manner as the fluorescence polarization anisotropy based competition assays.

[1] = system: H929 human cancer cell lines; assay: Cellular viability / proliferation (Cell TiterGlo, 72 h); format: cell-based
How it was run: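 1,000 cells/well, 10% FBS medium; compound added at 24 h, 2-fold dilutions from 50 μM top, DMSO <1% final. 72 h exposure, CellTiterGlo 30 min RT dark, luminescence read. IC50 by 4-parameter fit.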

[2] = Homo sapiens, NCI-H929, 72 h, read-out: GI50 on cellular proliferation of H929 human cancer cell lines, H929 cells, 72 h, Cell TiterGlo, 10% FBS

Mcl-1, sequence (Q07820 172-327): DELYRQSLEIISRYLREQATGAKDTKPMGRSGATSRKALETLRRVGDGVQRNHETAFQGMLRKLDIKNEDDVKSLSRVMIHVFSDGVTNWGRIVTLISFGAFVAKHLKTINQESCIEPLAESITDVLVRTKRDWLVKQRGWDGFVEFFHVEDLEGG

Structure (SMILES): Cc1ccc(Cn2cc(C(=O)O)c3cccc(N4C[C@@H](C)n5c(c(CCCOc6cc(C)c(Cl)c(C)c6)c6ccc(Cl)c(-c7c(C)nn(C)c7C)c65)C4=O)c32)nc1 (single isomer, unassigned) [Example 507]
- Ki (Mcl-1): 0.72 nM
- GI50 ([1]; read-out: GI50 on cellular proliferation of H929 human cancer cell lines, H929 cells, 72 h, Cell TiterGlo, 10% FBS): 1400 nM

Structure (SMILES): COCCn1c(C(=O)O)cc2cc(COC)cc(N3C[C@@H](C)n4c(c(CCCOc5cc(C)c(Cl)c(C)c5)c5ccc(Cl)c(-c6c(C)nn(C)c6C)c54)C3=O)c21 [Example 677, (R)-7-(7-chloro-10-(3-(4-chloro-3,5-dimethylphenoxy)propyl)-4-methyl-1-oxo-6-(1,3,5-trimethyl-1H-pyrazol-4-yl)-3,4-dihydropyrazino[1,2-a]indol-2(1H)-yl)-1-(2-methoxyethyl)-5-(methoxymethyl)-1H-indole-2-carboxylic acid]
- Ki (Mcl-1): < 0.2 nM
- GI50 [1, 2]: < 200 nM

Structure (SMILES): COCCOc1cc(N2C[C@@H](C)n3c(c(CCCOc4cc(C)c(Cl)c(C)c4)c4ccc(Cl)c(-c5c(C)ncnc5C)c43)C2=O)c2c(c1)cc(C(=O)O)n2Cc1cccc(C)n1 [Example 571, (R)-7-(7-chloro-10-(3-(4-chloro-3,5-dimethylphenoxy)propyl)-6-(4,6-dimethylpyrimidin-5-yl)-4-methyl-1-oxo-3,4-dihydropyrazino[1,2-a]indol-2(1H)-yl)-5-(2-methoxyethoxy)-1-((6-methylpyridin-2-yl)methyl)-1H-indole-2-carboxylic acid]
- Ki (Mcl-1): < 0.2 nM
- GI50 [1, 2]: < 200 nM

Structure (SMILES): Cc1cc(OCCCc2c3n(c4c(-c5c(C)nn(C)c5C)c(Cl)ccc24)[C@H](C)CN(c2cn(CCN4CCCC4)c4ccc(C(=O)O)cc24)C3=O)cc(C)c1Cl [Example 511, (R)-3-(7-Chloro-10-(3-(4-chloro-3,5-dimethylphenoxy)propyl)-4-methyl-1-oxo-6-(1,3,5-trimethyl-1H-pyrazol-4-yl)-3,4-dihydropyrazino[1,2-a]indol-2(1H)-yl)-1-(2-(pyrrolidin-1-yl)ethyl)-1H-indole-5-carboxylic acid]
- Ki (Mcl-1): < 0.2 nM
- GI50 [1, 2]: 300 nM

Structure (SMILES): Cc1cc(N2C[C@@H](C)n3c(c(CCCOc4cc(C)c(Cl)c(C)c4)c4ccc(Cl)c(-c5c(C)nn(C)c5C)c43)C2=O)c2c(c1)cc(C(=O)O)n2Cc1cc(N2CCCCC2)ccn1 [Example 504, (R)-7-(7-Chloro-10-(3-(4-chloro-3,5-dimethylphenoxy)propyl)-4-methyl-1-oxo-6-(1,3,5-trimethyl-1H-pyrazol-4-yl)-3,4-dihydropyrazino[1,2-a]indol-2(1H)-yl)-5-methyl-1-((4-(piperidin-1-yl)pyridin-2-yl)methyl)-1H-indole-2-carboxylic acid]
- Ki (Mcl-1): 0.23 nM
- GI50 [1, 2]: 1000 nM

Structure (SMILES): COCCn1cc(C(=O)O)c2cccc(N3C[C@@H](C)n4c(c(CCCOc5cc(C)c(Cl)c(C)c5)c5ccc(Cl)c(-c6c(C)nn(C)c6C)c54)C3=O)c21 [Example 512, (R)-7-(7-Chloro-10-(3-(4-chloro-3,5-dimethylphenoxy)propyl)-4-methyl-1-oxo-6-(1,3,5-trimethyl-1H-pyrazol-4-yl)-3,4-dihydropyrazino[1,2-a]indol-2(1H)-yl)-1-(2-methoxyethyl)-1H-indole-3-carboxylic acid]
- Ki (Mcl-1): < 0.2 nM
- GI50 [1, 2]: 220 nM

Structure (SMILES): Cc1cc(OCCCc2c3n(c4c(-c5c(C)nn(C)c5C)c(Cl)ccc24)[C@H](C)CN(c2cn(CC4(C)COC4)c4ccc(C(=O)O)cc24)C3=O)cc(C)c1Cl [Example 616]
- Ki (Mcl-1): < 0.2 nM
- GI50 ([1]; H929 cells, 72 h, Cell TiterGlo, 10% FBS, read-out: GI50 on cellular proliferation of H929 human cancer cell lines): 340 nM

Structure (SMILES): Cc1cc(OCCCc2c3n(c4c(-c5c(C)nn(C)c5C)c(Cl)ccc24)[C@H](C)CN(c2cc(C(=O)N4CCN(C)CC4)cc4cc(C(=O)O)n(C)c24)C3=O)cc(C)c1Cl [Example 626, (R)-7-(7-chloro-10-(3-(4-chloro-3,5-dimethylphenoxy)propyl)-4-methyl-1-oxo-6-(1,3,5-trimethyl-1H-pyrazol-4-yl)-3,4-dihydropyrazino[1,2-a]indol-2(1H)-yl)-1-methyl-5-(4-methylpiperazine-1-carbonyl)-1H-indole-2-carboxylic acid]
- Ki (Mcl-1): < 0.2 nM
- GI50 [1, 2]: 4400 nM

Structure (SMILES): Cc1cc(OCCCc2c3n(c4c(-c5c(C)nn(C)c5C)c(Cl)ccc24)[C@H](C)CN(c2cc(C(=O)N4CCOCC4)cc4cc(C(=O)O)n(C)c24)C3=O)cc(C)c1Cl [Example 591, (R)-7-(7-chloro-10-(3-(4-chloro-3,5-dimethylphenoxy)propyl)-4-methyl-1-oxo-6-(1,3,5-trimethyl-1H-pyrazol-4-yl)-3,4-dihydropyrazino[1,2-a]indol-2(1H)-yl)-1-methyl-5-(morpholine-4-carbonyl)-1H-indole-2-carboxylic acid]
- Ki (Mcl-1): < 0.2 nM
- GI50 [1, 2]: 2800 nM

Structure (SMILES): Cc1cc(OCCCc2c3n(c4c(-c5c(C)nn(C)c5C)c(Cl)ccc24)[C@H](C)CN(c2cn(CCN4CCN(C)CC4)c4ccc(-c5ncn(C)n5)cc24)C3=O)cc(C)c1Cl [Example 526, (R)-7-Chloro-10-(3-(4-chloro-3,5-dimethylphenoxy)propyl)-4-methyl-2-(5-(1-methyl-1H-1,2,4-triazol-3-yl)-1-(2-(4-methylpiperazin-1-yl)ethyl)-1H-indol-3-yl)-6-(1,3,5-trimethyl-1H-pyrazol-4-yl)-3,4-dihydropyrazino[1,2-a]indol-1(2H)-one]
- Ki (Mcl-1): < 0.2 nM
- GI50 [1, 2]: < 200 nM

Structure (SMILES): COc1ccc(N2C[C@@H](C)n3c(c(CCCOc4cc(C)c(Cl)c(C)c4)c4ccc(Cl)c(-c5c(C)ncnc5C)c43)C2=O)c2c1cc(C(=O)O)n2Cc1ccc(C)cn1 [Example 478, (R)-7-(7-Chloro-10-(3-(4-chloro-3,5-dimethylphenoxy)propyl)-6-(4,6-dimethylpyrimidin-5-yl)-4-methyl-1-oxo-3,4-dihydropyrazino[1,2-a]indol-2(1H)-yl)-4-methoxy-1-((5-methylpyridin-2-yl)methyl)-1H-indole-2-carboxylic acid]
- Ki (Mcl-1): 0.24 nM
- GI50 [1, 2]: 560 nM

Structure (SMILES): COCCOc1ccc(N2C[C@@H](C)n3c(c(CCCOc4cc(C)c(Cl)c(C)c4)c4ccc(Cl)c(-c5c(C)nn(C)c5C)c43)C2=O)c2c1cc(C(=O)O)n2Cc1cc(C)ccn1 [Example 632, (R)-7-(7-chloro-10-(3-(4-chloro-3,5-dimethylphenoxy)propyl)-4-methyl-1-oxo-6-(1,3,5-trimethyl-1H-pyrazol-4-yl)-3,4-dihydropyrazino[1,2-a]indol-2(1H)-yl)-4-(2-methoxyethoxy)-1-((4-methylpyridin-2-yl)methyl)-1H-indole-2-carboxylic acid]
- Ki (Mcl-1): < 0.2 nM
- GI50 [1, 2]: 220 nM

Structure (SMILES): Cc1cc(OCCCc2c3n(c4c(-c5c(C)nn(C)c5C)c(Cl)ccc24)[C@H](C)CN(c2cc(OC4CCN(C)CC4)cc4cc(C(=O)O)n(C)c24)C3=O)cc(C)c1Cl [Example 519, (R)-7-(7-chloro-10-(3-(4-chloro-3,5-dimethylphenoxy)propyl)-4-methyl-1-oxo-6-(1,3,5-trimethyl-1H-pyrazol-4-yl)-3,4-dihydropyrazino[1,2-a]indol-2(1H)-yl)-1-methyl-5-((1-methylpiperidin-4-yl)oxy)-1H-indole-2-carboxylic acid]
- Ki (Mcl-1): 0.46 nM
- GI50 [1, 2]: 990 nM

Structure (SMILES): Cc1cc(OCCCc2c3n(c4c(-c5c(C)nn(C)c5C)c(Cl)ccc24)[C@H](C)CN(c2cn(C)c4ccc(-n5ccnn5)nc24)C3=O)cc(C)c1Cl [Example 659, (R)-7-Chloro-10-(3-(4-chloro-3,5-dimethylphenoxy)propyl)-4-methyl-2-(1-methyl-5-(1H-1,2,3-triazol-1-yl)-1H-pyrrolo[3,2-b]pyridin-3-yl)-6-(1,3,5-trimethyl-1H-pyrazol-4-yl)-3,4-dihydropyrazino[1,2-a]indol-1(2H)-one]
- Ki (Mcl-1): 0.96 nM
- GI50 [1, 2]: 930 nM

Structure (SMILES): COCCn1cc(N2C[C@@H](C)n3c(c(CCCOc4cc(C)c(Cl)c(C)c4)c4ccc(Cl)c(-c5c(C)nn(C)c5C)c43)C2=O)c2cc(-c3ncn(CC4CC4)n3)ccc21 [Example 589, (R)-7-Chloro-10-(3-(4-chloro-3,5-dimethylphenoxy)propyl)-2-(5-(1-(cyclopropylmethyl)-1H-1,2,4-triazol-3-yl)-1-(2-methoxyethyl)-1H-indol-3-yl)-4-methyl-6-(1,3,5-trimethyl-1H-pyrazol-4-yl)-3,4-dihydropyrazino[1,2-a]indol-1(2H)-one]
- Ki (Mcl-1): 1.7 nM
- GI50 [1, 2]: 1100 nM

Structure (SMILES): Cc1cc(OCCCc2c3n(c4c(-c5c(C)nn(C)c5C)c(Cl)ccc24)[C@H](C)CN(c2cc(N(C)Cc4ccccn4)cc4c(C(=O)O)cn(C)c24)C3=O)cc(C)c1Cl [Example 564, (R)-7-(7-chloro-10-(3-(4-chloro-3,5-dimethylphenoxy)propyl)-4-methyl-1-oxo-6-(1,3,5-trimethyl-1H-pyrazol-4-yl)-3,4-dihydropyrazino[1,2-a]indol-2(1H)-yl)-1-methyl-5-(methyl(pyridin-2-ylmethyl)amino)-1H-indole-3-carboxylic acid]
- Ki (Mcl-1): 0.46 nM
- GI50 [1, 2]: 590 nM

Structure (SMILES): Cc1ccnc(Cn2c(C(=O)O)cc3cc(C)cc(N4C[C@@H](C)n5c(c(CCCOc6cc(C)c(Cl)c(C)c6)c6ccc(Cl)c(-c7c(C)ncnc7C)c65)C4=O)c32)c1 [Example 577, (R)-7-(7-chloro-10-(3-(4-chloro-3,5-dimethylphenoxy)propyl)-6-(4,6-dimethylpyrimidin-5-yl)-4-methyl-1-oxo-3,4-dihydropyrazino[1,2-a]indol-2(1H)-yl)-5-methyl-1-((4-methylpyridin-2-yl)methyl)-1H-indole-2-carboxylic acid]
- Ki (Mcl-1): < 0.2 nM
- GI50 [1, 2]: 230 nM
